# Data: patent US20170320870A1 (Medical Research Council Technology, priority 2009, published 2017)
# pIC50: −log10 of the molar value.
# Biological target: T1, LRRK2 wild type (recombinant human, catalytic domain amino acids 970-2527, GST-tagged) (Homo sapiens, UniProt Q5S007)
# T1 construct: The wild type used was recombinant human, catalytic domain (amino acids 970-2527) GST-tagged, expressed in insect cells; GST; purchased Invitrogen Corporation PV4873; host or cells: insect cells
# Experiment: LRRK2 wild type protein kinase assay ([γ-33P] ATP, peptide substrate […]), IC50
# Type: biochemical
# Settings: LRRK2 (variant not given); read-out: Potency score, LRRK2 IC50
# Method in brief: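 Insect-cell-expressed enzyme (~5 nM), no activation, incubated 180 min at ~21 °C in 50 mM Tris-HCl pH 7.5, 0.1 mM EGTA, 1 mM DTT, 10 mM MgCl2 with 100 μM peptide substrate and [γ-33P]ATP. Reaction stopped with orthophosphoric acid, captured on P81 filters and counted; IC50 from 10 concentrations in duplicate.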
# T1 sequence (Q5S007 970-2527): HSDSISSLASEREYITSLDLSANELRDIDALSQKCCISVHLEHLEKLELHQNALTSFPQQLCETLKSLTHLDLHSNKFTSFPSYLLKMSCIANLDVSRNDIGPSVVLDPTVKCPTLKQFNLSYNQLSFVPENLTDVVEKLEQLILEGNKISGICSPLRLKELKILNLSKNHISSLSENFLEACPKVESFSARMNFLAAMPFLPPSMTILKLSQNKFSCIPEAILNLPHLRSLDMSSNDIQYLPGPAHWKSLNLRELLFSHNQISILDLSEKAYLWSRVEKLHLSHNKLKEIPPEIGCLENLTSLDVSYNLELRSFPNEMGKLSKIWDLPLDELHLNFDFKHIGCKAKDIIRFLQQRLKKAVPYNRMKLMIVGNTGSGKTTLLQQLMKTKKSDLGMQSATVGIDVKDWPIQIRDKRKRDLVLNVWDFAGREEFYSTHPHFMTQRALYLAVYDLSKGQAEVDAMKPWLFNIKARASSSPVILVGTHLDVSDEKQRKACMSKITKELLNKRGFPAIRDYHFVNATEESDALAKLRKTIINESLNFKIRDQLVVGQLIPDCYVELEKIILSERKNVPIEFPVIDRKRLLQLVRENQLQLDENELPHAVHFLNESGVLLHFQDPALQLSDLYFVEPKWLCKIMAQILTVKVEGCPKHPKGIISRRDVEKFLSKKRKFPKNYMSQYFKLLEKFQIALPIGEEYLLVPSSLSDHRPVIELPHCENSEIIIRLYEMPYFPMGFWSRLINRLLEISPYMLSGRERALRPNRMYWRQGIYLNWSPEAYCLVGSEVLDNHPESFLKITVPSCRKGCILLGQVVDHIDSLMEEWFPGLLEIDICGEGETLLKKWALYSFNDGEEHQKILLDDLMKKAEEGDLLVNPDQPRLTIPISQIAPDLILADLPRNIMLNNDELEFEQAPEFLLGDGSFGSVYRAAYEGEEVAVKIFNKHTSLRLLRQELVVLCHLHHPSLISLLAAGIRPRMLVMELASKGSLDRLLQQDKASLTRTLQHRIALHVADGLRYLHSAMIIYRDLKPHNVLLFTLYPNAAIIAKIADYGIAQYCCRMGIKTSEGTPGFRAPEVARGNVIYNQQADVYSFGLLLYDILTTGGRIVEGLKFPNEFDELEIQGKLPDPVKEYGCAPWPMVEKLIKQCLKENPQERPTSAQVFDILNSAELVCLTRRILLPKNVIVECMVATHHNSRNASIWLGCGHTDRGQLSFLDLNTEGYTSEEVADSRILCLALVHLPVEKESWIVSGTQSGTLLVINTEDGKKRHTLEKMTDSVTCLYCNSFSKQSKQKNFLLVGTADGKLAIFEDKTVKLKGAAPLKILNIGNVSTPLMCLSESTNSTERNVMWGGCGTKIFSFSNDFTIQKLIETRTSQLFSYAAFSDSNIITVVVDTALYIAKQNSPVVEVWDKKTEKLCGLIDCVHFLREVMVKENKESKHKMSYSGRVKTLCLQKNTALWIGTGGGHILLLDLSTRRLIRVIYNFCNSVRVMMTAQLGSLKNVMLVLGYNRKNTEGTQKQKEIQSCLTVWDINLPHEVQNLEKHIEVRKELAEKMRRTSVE
row,Compound,pIC50
1,"CC[C@H](C)COc1nccc2[nH]nc(C)c12 [Example 284, 3-Methyl-4-((S)-2-methyl-butoxy)-1H-pyrazolo[4,3-c]pyridine]",> 7.00
2,"CCC[C@H](C)Oc1nccc2[nH]nc(C)c12 [Example 285, 3-Methyl-4-((S)-1-methyl-butoxy)-1H-pyrazolo[4,3-c]pyridine]",6.00 to 7.00
3,"Cc1n[nH]c2ccnc(Nc3cccc(CO)c3)c12 [Example 321, [3-(3-Methyl-1H-pyrazolo[4,3-c]pyridin-4-ylamino)-phenyl]-methanol]",6.00 to 7.00
4,"Clc1ccccc1-c1n[nH]c2ccnc(NC3CCCCC3)c12 [Example 143, [3-(2-Chloro-phenyl)-1H-pyrazolo[4,3-c]pyridin-4-yl]-cyclohexyl-amine]",6.00 to 7.00
5,"Cc1n[nH]c2ccnc(NCCNc3ccccc3)c12 [Example 337, N-(3-Methyl-1H-pyrazolo[4,3-c]pyridin-4-yl)-N′-phenyl-ethane-1,2-diamine]",5.00 to 6.00
6,"CC1CN(C(=O)CCc2n[nH]c3ccnc(NC4CCCCC4)c23)C1 [Example 241, 3-(4-Cyclohexyl-amino-1H-pyrazolo [4,3-c]pyridin-3-yl)-1-(3-methyl-azetidin-1-yl)-propan-1-one]",> 7.00
7,"Cc1n[nH]c2ccnc(NCCc3cccc(F)c3)c12 [Example 333, [2-(3-Fluoro-phenyl)-ethyl]-(3-methyl-1H-pyrazolo[4,3-c]pyridin-4-yl)-amine]",6.00 to 7.00
8,"1-(3-Benzyl-piperidin-1-yl)- 3-(4-cyclohexylamino-1H- pyrazolo[4,3-c]pyridin-3-yl)- propan-1-one [Example 200]",6.00 to 7.00
9,"O=C(CCc1n[nH]c2ccnc(NC3CCCCC3)c12)N1CCC(c2cccnc2)C1 (stereo not drawn) [Example 207, 3-(4-Cyclohexylamino-1H-pyrazolo[4,3-c]pyridin-3-yl)-1-(3-pyridin-3-yl-pyrrolidin-1-yl)-propan-1-one]",> 7.00
10,"Cc1n[nH]c2ccnc(-c3ccccc3)c12 [Example 56, 3-Methyl-4-phenyl-1H-pyrazolo[4,3-c] pyridine]",5.00 to 6.00
11,"Cc1noc(C2CCCN(C(=O)CCc3n[nH]c4ccnc(NC5CCCCC5)c34)C2)n1 (stereo not drawn) [Example 197, 3-(4-Cyclohexylamino-1H-pyrazolo[4,3-c]pyridin-3-yl)-1-[3-(3-methyl-1,2,4-oxadiazol-5-yl)-piperidin-1-yl]-propan-1-one]",6.00 to 7.00
12,"O=C(CCc1n[nH]c2ccnc(NC3CCCCC3)c12)N1CCCC(Oc2cccnc2)C1 (stereo not drawn) [Example 195, 3-(4-Cyclohexylamino-1H-pyrazolo[4,3-c]pyridin-3-yl)-1-[3-(pyridin-3-yloxy)-piperidin-1-yl]-propan-1-one]",6.00 to 7.00
13,"Clc1ccc(-c2n[nH]c3ccnc(NC4CCCCC4)c23)cc1 [Example 145, [3-(4-Chloro-phenyl)-1H-pyrazolo[4,3-c]pyridin-4-yl]-cyclohexyl-amine]",6.00 to 7.00
14,"Cc1n[nH]c2ccnc(O[C@@H]3CCC[C@H]3C)c12 (racemic) [Example 298, Trans-3-Methyl-4-(2-methyl-cyclopentyloxy)-1H-pyrazolo[4,3-c]pyridine]",> 7.00
15,"Cc1n[nH]c2ccnc(Nc3cccc(OC(C)C)c3)c12 [Example 341, (3-Isopropoxy-phenyl)-(3-methyl-1H-pyrazolo[4,3-c]pyridin-4-yl)-amine]",5.00 to 6.00
16,"Cc1n[nH]c2ccnc(N[C@@H](CO)C(C)C)c12 [Example 30, (R)-3-Methyl-2-(3-methyl-1H-pyrazolo[4,3-c]pyridin-4-ylamino)-butan-1-ol]",5.00 to 6.00
17,"Cc1n[nH]c2ccnc(OC3CCN(C)CC3)c12 [Example 116, 3-Methyl-4-(1-methyl-piperidin-4-yloxy)-1H-pyrazolo[4,3-c] pyridine]",5.00 to 6.00
18,"CC(=O)NCCNc1nccc2[nH]nc(C)c12 [Example 302, N-[2-(3-Methyl-1H-pyrazolo[4,3-c]pyridin-4-ylamino)-ethyl]-acetamide]",5.00 to 6.00
19,"Cc1n[nH]c2ccnc(N[C@H](C)c3ccccc3)c12 [Example 19, (3-Methyl-1H-pyrazolo[4,3-c]pyridin-4-yl)-((R)-1-phenyl-ethyl)-amine]",5.00 to 6.00
20,"Cn1nccc1NC(=O)c1ccc(CCc2n[nH]c3ccnc(NC4CCCCC4)c23)cc1 [Example 252, 4-[2-(4-Cyclohexylamino-1H-pyrazolo[4,3-c]pyridin-3-yl)-ethyl]-N-(2-methyl-2H-pyrazol-3-yl)-benzamide]",6.00 to 7.00
21,"Cc1n[nH]c2ccnc(Nc3ccc4nccnc4c3)c12 [Example 352, (3-Methyl-1H-pyrazolo[4,3-c]pyridin-4-yl)-quinoxalin-6-yl-amine]",5.00 to 6.00

row,Compound,pIC50
1,"Cc1cc(C)n(CCNc2nccc3[nH]nc(C)c23)n1 [Example 323, [2-(3,5-Dimethyl-pyrazol-1-yl)-ethyl]-(3-methyl-1H-pyrazolo[4,3-c]pyridin-4-yl)-amine]",5.00 to 6.00
2,"COc1nccc2[nH]nc(/C=C/C(=O)N3CCC[C@@H](C)C3)c12 [Example 259, (E)-3-(4-Methoxy-1H-pyrazolo[4,3-c]pyridin-3-yl)-1-((R)-3-methyl-piperidin-1-yl)-propenone]",> 7.00
3,"CCN(CC)C(=O)CCc1n[nH]c2ccnc(NC3CCCCC3)c12 [Example 181, 3-(4-Cyclohexylamino-1H-pyrazolo[4,3-c]pyridin-3-yl)-N,N-diethyl-propionamide]",6.00 to 7.00
4,"CN(C)C1CCN(C(=O)CCc2n[nH]c3ccnc(NC4CCCCC4)c23)CC1 [Example 174, 3-(4-Cyclohexylamino-1H-pyrazolo[4,3-c]pyridin-3-yl)-1-(4-dimethylamino-piperidin-1-yl)-propan-1-one]",5.00 to 6.00
5,"O=C(CCc1n[nH]c2ccnc(O)c12)N1CCC[C@H](c2ccccc2)C1 [Example 257, 3-(4-Hydroxy-1H-pyrazolo[4,3-c]pyridin-3-yl)-1-((R)-3-phenyl-piperidin-1-yl)-propan-1-one]",5.00 to 6.00
6,"COCCNC(=O)c1ccc(Nc2nccc3[nH]nc(C)c23)cc1 [Example 108, N-(2-Methoxy-ethyl)-4-(3-methyl-1H-pyrazolo [4,3-c]pyridin-4-ylamino)-benzamide]",5.00 to 6.00
7,"Cc1n[nH]c2ccnc(NCCc3ccc(Cl)cc3)c12 [Example 329, [2-(4-Chloro-phenyl)-ethyl]-(3-methyl-1H-pyrazolo[4,3-c]pyridin-4-yl)-amine]",6.00 to 7.00
8,"Cc1n[nH]c2ccnc(N[C@H](CO)C(C)C)c12 [Example 28, (S)-3-Methyl-2-(3-methyl-1H-pyrazolo[4,3-c]pyridin-4-ylamino)-butan-1-ol]",5.00 to 6.00
9,"Cc1n[nH]c2ccnc(Nc3ccc4nc[nH]c4c3)c12 [Example 81, (3H-Benzimidazol-5-yl)-(3-methyl-1H-pyrazolo[4,3-c]pyridin-4-yl)-amine]",6.00 to 7.00
10,"Cc1n[nH]c2ccnc(OC3CCCC3(C)C)c12 (stereo not drawn) [Example 289, 4-(2,2-Dimethyl-cyclopentyloxy)-3-methyl-1H-pyrazolo[4,3-c]pyridine]",6.00 to 7.00
11,"Cc1n[nH]c2ccnc(Nc3cc(F)cc(F)c3)c12 [Example 69, (3,5-Difluoro-phenyl)-(3-methyl-1H-pyrazolo[4,3-c]pyridin-4-yl)-amine]",6.00 to 7.00
12,"C[C@@H]1CCCN(C(=O)CCc2n[nH]c3ccnc(NC4CCCCC4)c23)C1 [Example 243, 3-(4-Cyclohexylamino-1H-pyrazolo[4,3-c]pyridin-3-yl)-1-((R)-3-methyl-piperidin-1-yl)-propan-1-one]",> 7.00
13,"Cc1n[nH]c2ccnc(Nc3cccc(C(F)(F)F)c3)c12 [Example 66, (3-Methyl-1H-pyrazolo[4,3-c]pyridin-4-yl)-(3-trifluoromethyl-phenyl)-amine]",6.00 to 7.00
14,"c1ccc2c(-c3n[nH]c4ccnc(NC5CCCCC5)c34)cncc2c1 [Example 164, Cyclohexyl-(3-isoquinolin-4-yl-1H-pyrazolo[4,3-c]pyridin-4-yl)-amine]",5.00 to 6.00
15,"Cc1n[nH]c2ccnc(OC3CCCCCC3)c12 [Example 283, 4-Cycloheptyloxy-3-methyl-1H-pyrazolo[4,3-c] pyridine]",> 7.00
16,"Fc1cccc(Nc2nccc3[nH]ncc23)c1 [Example 132, (3-Fluoro-phenyl)-(1H-pyrazolo[4,3-c]pyridin-4-yl)-amine]",6.00 to 7.00
17,"COCCN1CCN(C(=O)CCc2n[nH]c3ccnc(NC4CCCCC4)c23)CC1 [Example 178, 3-(4-Cyclohexylamino-1H-pyrazolo[4,3-c]pyridin-3-yl)-1-[4-(2-methoxy-ethyl)-piperazin-1-yl]-propan-1-one]",6.00 to 7.00
18,"Cc1n[nH]c2ccnc(-c3cnn(C)c3)c12 [Example 47, 3-Methyl-4-(1-methyl-1H-pyrazol-4-yl)-1H-pyrazolo[4,3-c]pyridine]",5.00 to 6.00
19,"O=C(CCc1n[nH]c2ccnc(NC3CCCCC3)c12)N1CCOCC1 [Example 175, 3-(4-Cyclohexylamino-1H-pyrazolo[4,3-c]pyridin-3-yl)-1-morpholin-4-yl-propan-1-one]",6.00 to 7.00
20,"O=C(Nc1ccc(CCc2n[nH]c3ccnc(NC4CCCCC4)c23)cc1)c1cocn1 [Example 268, Oxazole-4-carboxylic acid {4-[2-(4-cyclohexylamino-1H-pyrazolo[4,3-c]pyridin-3-yl)-ethyl]-phenyl}-amide]",> 7.00
21,"c1ccc(Cn2cc(-c3n[nH]c4ccnc(NC5CCCCC5)c34)cn2)nc1 [Example 234, Cyclohexyl-[3-(1-pyridin-2-ylmethyl-1H-pyrazol-4-yl)-1H-pyrazolo[4,3-c]pyridin-4-yl]-amine]",6.00 to 7.00
